Measurements taken from patent US20130053330A1, “Fertilization Prediction and Promotion” (Karolinska Institutet Innovations AB, priority 2010, published 2013).
Peptide text beside a SMILES is read from it.

B1: Histidine-rich glycoprotein (protein)
chain: VSPTDCSAVEPEAEKALDLINKRRRDGYLFQLLRIADAHLDRVENTTVYYLVLDVQESDCSVLSRKYWNDCEPPDSRRPSEIVIGQCKVIATRHSHESQDLRVIDFNCTTSSVSSALANTKDSPVLIDFFEDTERYRKQANKALEKYKEENDDFASFRVDRIERVARVRGGEGTGYFVDFSVRNCPRHHFPRHPNVFGFCRADLFYDVEALDLESPKNLVINCEVFDPQEHENINGVPPHLGHPFHWGGHERSSTTKPPFKPHGSRDHHHPHKPHEHGPPPPPDERDHSHGPPLPQGPPPLLPMSCSSCQHATFGTNGAQRHSHNNNSSDLHPHKHHSHEQHPHGHHPHAHHPHEHDTHRQHPHGHHPHGHHPHGHHPHGHHPHGHHPHCHDFQDYGPCDPPPHNQGHCCHGHGPPPGHLRRRGPGKGPRPFHCRQIGSVYRLPPLRKGEVLPLPEANFPSFPLPHHKHPLKPDNQPFPQSVSESCPGKFKSGFPQVSMFFTHTFPK

Columns and labels:
[1] = tested on: Human endometrial endothelial (HEE) cells; test: Cell proliferation assay, HEE cells; assay type: cell-based; conditions: 100 ng/ml; starvation medium with 0.25% FCS; cell numbers scored after 5 days
Protocol: (§1) By using a proliferation and a migration (chemotaxis) assay the importance of HRG as well as HRG peptides was analyzed. The peptides used correspond to a fragment of full-length HRG containing 35 amino acids covering position 204 in the protein; the proline of native HRG in that specific position is changed to serine. The amino acid sequences are: […] NO: 7, named HRGPro herein) and […] NO: 8, named […] herein); the peptides were produced and purchased from Innovagen, Lund, Sweden. Cells (G10 and HEEC) in culture medium supplemented with 10% FCS were seeded into 24-well dishes. After 2 h the medium was changed to starvation medium (culture medium containing 0.25% FCS) and the incubation continued for an additional 24 h. The medium was changed again at day 2 and day 4 (starvation medium), and at the same time FGF-2 or VEGF, HRG or HRG Pro or Ser containing peptide were added. As a control, cells were cultured in basal culture medium supplemented with 10% FCS. Cell numbers were scored after 5 days. Human endometrial endothelial (HEE) cells were cultured in starvation medium containing culture medium (3 H) supplemented with 0.25% FCS.

[2] = tested on: Human endometrial endothelial (HEE) cells; test: Chemotaxis (migration) assay in modified Boyden chamber, HEE cells; assay type: cell-based; conditions: VEGF 10 ng/ml; for inhibition of VEGF-induced migration of HEE cells: 100 ng/ml in lower chamber, 4-6 h at 37° C.
Protocol: By using a proliferation and a migration (chemotaxis) assay the importance of HRG as well as HRG peptides was analyzed. The peptides used correspond to a fragment of full-length HRG containing 35 amino acids covering position 204 in the protein; the proline of native HRG in that specific position is changed to serine. The amino acid sequences are: […] NO: 7, named HRGPro herein) and […] NO: 8, named […] herein); the peptides were produced and purchased from Innovagen, Lund, Sweden. The assay was performed in a modified Boyden chamber using micropore nitrocellulose filters (8 μm thick, 8 μm pore) coated with type-1 collagen solution at 100 μg/ml (Vitrogen 100, Collagen Corp.). Cells (G10 and HEEC cells) were trypsinized and resuspended at a concentration of 5.5×10^5 cells/ml in serum-free culture medium containing 0.25% fetal calf serum (FCS). […] After 4-6 h at 37° C., the medium was removed and the cells sticking to the filter were fixed in pure methanol and stained with Giemsa stain. The cells that had migrated through the filter were counted. The effects of HRG, HRGPro and […] on migration of G10 and HEE cells were examined by using a Boyden chamber.

[3] = tested on: G10 cells (Porcine aortic endothelial cells); test: Chemotaxis (migration) assay in modified Boyden chamber, G10 cells; assay type: cell-based, pig; conditions: for inhibition of VEGF-induced migration of G10 cells: 100 ng/ml in lower chamber, 4-6 h at 37° C.
Protocol: By using a proliferation and a migration (chemotaxis) assay the importance of HRG as well as HRG peptides was analyzed. The peptides used correspond to a fragment of full-length HRG containing 35 amino acids covering position 204 in the protein; the proline of native HRG in that specific position is changed to serine. The amino acid sequences are: […] (SEQ ID NO: 7, named HRGPro herein) and […] (SEQ ID NO: 8, named HRGSer herein); the peptides were produced and purchased from Innovagen, Lund, Sweden.
The assay was performed in a modified Boyden chamber using micropore nitrocellulose filters (8 μm thick, 8 μm pore) coated with type-1 collagen solution at 100 μg/ml (Vitrogen 100, Collagen Corp.). Cells (G10 and HEEC cells) were trypsinized and resuspended at a concentration of 5.5×10^5 cells/ml in serum-free culture medium containing 0.25% fetal calf serum (FCS). The cell suspension was placed in the upper chamber, and the serum-free medium containing 0.25% FCS and FGF-2 or VEGF, HRG or the HRGPro or HRGSer peptide, was placed below the filter in the lower chamber. As a positive control, medium containing 10% FCS was added to the lower chamber. After 4-6 h at 37° C., the medium was removed and the cells sticking to the filter were fixed in pure methanol and stained with Giemsa stain. The cells that had migrated through the filter were counted.
The effects of HRG, HRGPro and HRGSer on migration of G10 and HEE cells were examined by using a Boyden chamber.

[4] = tested on: G10 cells (Porcine aortic endothelial cells); conditions: 100 ng/ml; starvation medium (Ham's F12, 0.25% FCS); cell numbers scored after 5 days
Protocol: as §1, with “G10 cells (Porcine aortic” for “Human endometrial”, “cells)” for “(HEE) cells”, “(Ham's F12)” for “(3 H)”

Molecule | increase in number of HEE cells compared with culture in starvation medium [1] | inhibition of VEGF-induced migration of HEE cells [2] | inhibition of VEGF-induced migration of G10 cells [3] | induction of migration of G10 cells ([3]; FGF 20 ng/ml) | induction of migration of HEE cells [2] | inhibition of proliferation of G10 cells (decrease compared with culture in starvation medium) [4]
CC(C)[C@H](NC(=O)[C@H](CC(N)=O)NC(=O)[C@@H]1CCCN1C(=O)[C@H](Cc1c[nH]cn1)NC(=O)[C@H](CCCNC(=N)N)NC(=O)[C@@H]1CCCN1C(=O)[C@H](Cc1ccccc1)NC(=O)[C@H](Cc1c[nH]cn1)NC(=O)[C@H](Cc1c[nH]cn1)NC(=O)[C@H](CCCNC(=N)N)NC(=O)[C@@H]1CCCN1C(=O)[C@H](CS)NC(=O)[C@H](CC(N)=O)NC(=O)[C@H](CCCNC(=N)N)NC(=O)[C@@H](NC(=O)[C@H](CO)NC(=O)[C@H](Cc1ccccc1)NC(=O)[C@H](CC(=O)O)NC(=O)[C@@H](NC(=O)[C@H](Cc1ccccc1)NC(=O)[C@H](Cc1ccc(O)cc1)NC(=O)CNC(=O)[C@@H](NC(=O)CNC(=O)[C@H](CCC(=O)O)NC(=O)CNC(=O)CNC(=O)[C@@H](N)CCCNC(=N)N)[C@@H](C)O)C(C)C)C(C)C)C(=O)N[C@@H](Cc1ccccc1)C(=O)NCC(=O)N[C@@H](Cc1ccccc1)C(=O)N[C@@H](CS)C(=O)N[C@@H](CCCNC(=N)N)C(=O)N[C@@H](C)C(=O)N[C@@H](CC(=O)O)C(=O)O [HRGPro] (H-RGGEGTGYFVDFSVRNCPRHHFPRHPNVFGFCRAD-OH; N-terminus and C-terminus assumed) | 13% | A tendency | A tendency | – | – | –
CC(C)[C@H](NC(=O)[C@H](CC(N)=O)NC(=O)[C@@H]1CCCN1C(=O)[C@H](Cc1c[nH]cn1)NC(=O)[C@H](CCCNC(=N)N)NC(=O)[C@@H]1CCCN1C(=O)[C@H](Cc1ccccc1)NC(=O)[C@H](Cc1c[nH]cn1)NC(=O)[C@H](Cc1c[nH]cn1)NC(=O)[C@H](CCCNC(=N)N)NC(=O)[C@H](CO)NC(=O)[C@H](CS)NC(=O)[C@H](CC(N)=O)NC(=O)[C@H](CCCNC(=N)N)NC(=O)[C@@H](NC(=O)[C@H](CO)NC(=O)[C@H](Cc1ccccc1)NC(=O)[C@H](CC(=O)O)NC(=O)[C@@H](NC(=O)[C@H](Cc1ccccc1)NC(=O)[C@H](Cc1ccc(O)cc1)NC(=O)CNC(=O)[C@@H](NC(=O)CNC(=O)[C@H](CCC(=O)O)NC(=O)CNC(=O)CNC(=O)[C@@H](N)CCCNC(=N)N)[C@@H](C)O)C(C)C)C(C)C)C(=O)N[C@@H](Cc1ccccc1)C(=O)NCC(=O)N[C@@H](Cc1ccccc1)C(=O)N[C@@H](CS)C(=O)N[C@@H](CCCNC(=N)N)C(=O)N[C@@H](C)C(=O)N[C@@H](CC(=O)O)C(=O)O [HRGSer] (H-RGGEGTGYFVDFSVRNCSRHHFPRHPNVFGFCRAD-OH; N-terminus and C-terminus assumed) | 86% | inhibited significantly | inhibited significantly | – | – | –
FGF: Fibroblast Growth Factor, used to induce migration of G10 cells [reference compound] | – | – | – | induced migration | – | –
VEGF [reference compound] | – | – | – | – | induced migration | –
B1 | 6% | A tendency | A tendency | – | – | 24%
